From article PMC12071533, “Acridine-Based Chalcone 1C and ABC Transporters” (International Journal of Molecular Sciences, 2025) come the findings set out here.

The target in the test is T1, ABCB1 (multidrug resistance protein 1, P-glycoprotein) (Homo sapiens, UniProt P08183).
T1 construct: recombinant human ABCB1 in MDR1-Sf9 membranes
In words: vanadate-sensitive ATPase assay (Pi release) in MDR1-Sf9 membranes; inhibition of verapamil-stimulated activity, biphasic in the activation test. The settings on record: read-out: EC50 (the source's name). Type of test: biochemical.

For the compound `COc1cccc(OC)c1C(=O)/C=C/c1c2ccccc2nc2ccccc12` [1C, (2E)-3-(acridin-9-yl)-1-(2,6-dimethoxyphenyl)prop-2-en-1-one], the IC50 is 5.53 ± 0.97 µM.
